The values that follow come from patent US5310665A (Gist-brocades, N.V., priority 1990, dated 1994).

Usually Km stands for the concentration of substrate that gives half-maximal velocity.

Assay [1] addresses T1, Actinoplanes missouriensis glucose isomerase variant M88SH290N (M88S/H290N) (Actinoplanes missouriensis, UniProt P12851, H290N/M88S).
T1 construct: made in house; host or cells: E. coli K514
The experiment in a line: Steady-state kinetics of glucose isomerase mutant. In kind it is biochemical. To be noted: 60° C., 10 mM Mg2+, pH 7.5. The procedure: (§1) Alternatively, the D-fructose produced during the isomerization reaction can be determined enzymatically using sorbitol dehydrogenase and NADH.
(§2) As a measure of specificity the quotient is Vmax /Km is sometimes used (Wells et al., ibid). […] These temperatures are chosen for practical reasons.
(§3) Activities were measured on purified enzyme. The coupled sorbitol dehydrogenase assay was used for xylose, the cysteine-carbazole or discontinuous sorbitol dehydrogenase method was used for glucose.

For assay [2], the target named is T2, Actinoplanes missouriensis glucose isomerase variant H290N (Actinoplanes missouriensis, UniProt P12851, H290N).
T2 construct: made in house; host or cells: E. coli K514
As to the kind of experiment: Steady-state kinetics of glucose isomerase mutant. In kind it is biochemical. Particulars: 60° C., 10 mM Mg2+, pH 7.5. The procedure:
as §1, §2, §3

For assay [3], the target named is T3, Actinoplanes missouriensis glucose isomerase, wild type, SEQ ID NO: 1 (Actinoplanes missouriensis, UniProt P12851).
T3 construct: made in house; host or cells: E. coli K514
As to the kind of experiment: Steady-state kinetics of glucose isomerase (coupled sorbitol dehydrogenase assay for xylose; cysteine-carbazole or sorbitol dehydrogenase method for glucose). Particulars: 60° C., 10 mM Mg2+, pH 7.5. The assay is classed as biochemical.

In assay [4] the test system is naturally occurring glucose isomerases (various microorganisms). To be noted: range over microorganisms; cited from earlier work.

T2 sequence (P12851 2-394 H290N limits assumed): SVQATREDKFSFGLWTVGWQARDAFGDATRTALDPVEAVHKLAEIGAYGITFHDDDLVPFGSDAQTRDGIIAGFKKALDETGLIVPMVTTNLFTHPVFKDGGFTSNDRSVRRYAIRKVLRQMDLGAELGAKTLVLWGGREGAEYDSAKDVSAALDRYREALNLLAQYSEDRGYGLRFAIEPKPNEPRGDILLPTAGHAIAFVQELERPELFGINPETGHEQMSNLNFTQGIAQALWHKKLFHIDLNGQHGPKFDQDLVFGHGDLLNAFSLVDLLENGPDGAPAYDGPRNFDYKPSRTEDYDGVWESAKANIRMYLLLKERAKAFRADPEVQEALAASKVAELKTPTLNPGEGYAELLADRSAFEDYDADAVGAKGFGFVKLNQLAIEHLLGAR
T3 sequence (P12851 2-394 limits assumed): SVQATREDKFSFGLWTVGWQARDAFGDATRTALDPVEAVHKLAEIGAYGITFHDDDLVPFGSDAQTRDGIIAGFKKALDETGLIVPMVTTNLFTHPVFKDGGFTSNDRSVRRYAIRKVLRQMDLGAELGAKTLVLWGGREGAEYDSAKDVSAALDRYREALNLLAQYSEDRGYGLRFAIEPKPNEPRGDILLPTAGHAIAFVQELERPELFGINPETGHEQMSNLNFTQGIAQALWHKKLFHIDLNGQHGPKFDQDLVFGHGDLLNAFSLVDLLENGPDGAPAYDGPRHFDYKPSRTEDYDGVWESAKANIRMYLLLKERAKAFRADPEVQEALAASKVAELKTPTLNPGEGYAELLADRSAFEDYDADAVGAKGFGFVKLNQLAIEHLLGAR
T1 sequence (P12851 2-394 M88S/H290N limits assumed): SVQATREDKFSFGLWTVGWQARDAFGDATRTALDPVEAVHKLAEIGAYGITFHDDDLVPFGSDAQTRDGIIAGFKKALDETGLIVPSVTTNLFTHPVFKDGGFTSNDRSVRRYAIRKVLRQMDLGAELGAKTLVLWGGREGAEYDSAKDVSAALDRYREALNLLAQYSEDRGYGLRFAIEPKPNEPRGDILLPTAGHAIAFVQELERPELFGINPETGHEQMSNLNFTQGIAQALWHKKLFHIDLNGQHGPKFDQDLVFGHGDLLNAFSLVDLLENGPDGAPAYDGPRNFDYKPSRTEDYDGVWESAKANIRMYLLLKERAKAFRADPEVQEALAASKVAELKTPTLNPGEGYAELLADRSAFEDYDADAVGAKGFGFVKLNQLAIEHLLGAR

With `O=C[C@H](O)[C@@H](O)[C@H](O)[C@H](O)CO` [glucose], the Vmax gl in assay [1] is 49.770 µmol/min/mg; in assay [2] it was 41.800 µmol/min/mg; in assay [3] it was 34.800 µmol/min/mg.
Consider `O=C[C@H](O)[C@@H](O)[C@H](O)CO` [xylose], for which, in assay [4], the Km was 5 to 93 mM.
